One data set has as its system MCF-7 cells. As to the kind of experiment: Wound healing assay. The format is cell-based, human. Conditions: 0.1, 1, 10 μM, 24 h, vs untreated control. The procedure: The impact of compound 3g on MCF-7 cell migration was assessed using wound healing and transwell migration assays.
MCF-7 cells were seeded and incubated in a 6-well plate overnight. Scratches were made in confluent monolayers with a 200 μL pipette tip. Then, wounds were washed twice with media to remove debris and uprooted cells. Cells were treated with various concentrations (0, 0.1, 1, and 10 μM) of compound 3g. Images were obtained using phase contrast microscopy at 0 and 24 h. The migration distance of cells in the wound area was quantified using ImageJ.
Figure 4 Effect of compound 3g on the migration of MCF-7 breast cancer cells. (A) 3g inhibited the migration of MCF-7 cells at different concentrations in a dose-dependent manner. Representative images of wound healing were captured by an inverted microscope at 0 h and 24 h treatment. Scale bar = 200 μm. (B) Wound closure percentages in the different groups after treatment with 3g for 24 h. (C) Results of the transwell migration assay. Representative images of the stained migrated cells after incubation with 3g at different concentrations for 48 h. Scale bar = 200 μm. Data are presented as the mean ± SD of three independent experiments. Bar values represent the standard deviation SD. ** p < 0.01, and *** p < 0.001 (one-way ANOVA).

The test system of data set [1] is microtubule network in MCF-7 cells. As to the kind of experiment: Immunofluorescence staining of microtubules. It is filed as cell-based, human. Conditions: 0.1, 1 and 10 μM, 24 h. Here is the method:
Given the potent in vitro antiproliferative activity of compound 3g, its effects on microtubule organization were further investigated using immunofluorescence staining in MCF-7 cells. […] The network appeared disassembled and fragmented in a dose-dependent manner, indicating significant cytoskeletal destabilization.
MCF-7 cells were seeded on glass coverslips in 24-well plates and then treated with vehicle control 0.1% DMSO, 3g (0.1, 1, 10 μM) for 24 h. The cells were fixed with 4% paraformaldehyde and then permeabilized with PBS containing 0.2% Triton X-100. After blocking for 30 min by adding 100 μL of goat serum albumin at room temperature, cells were incubated with a β-tubulin polyclonal antibody (Proteintech, Wuhan Sanying Biotechnology, Wuhan, China, Cat# 10094-1-AP, 1:500 dilution) at 37 °C for 12 h. Then, the cells were washed three times with PBS and incubated with a secondary antibody (Beyotime, Shanghai, China, Cat# A0516, 1:500 dilution) for 1 h at room temperature. Nuclei were labeled with 4,6-diamidino-2-phenylindole (DAPI). Cells were finally visualized using a fluorescence microscope (Nikon TI2-E+A1R, Nikon Corporation, Tokyo, Japan).
Figure 5 Effects of compound 3g on microtubules. MCF-7 cells were treated with vehicle control 0.1% DMSO, compound 3g (0.1μM, 1μM, and 10 μM for 24 h). […]

Data set [2] has as its system B16F10 melanoma tumors in BALB/c mice. As to the kind of experiment: In vivo antitumor efficacy, subcutaneous B16-F10 melanoma model. Set-up: species or system mouse. The conditions noted are these: 14 days, from tumor weight. The procedure:
The in vivo antitumor activity of compound 3g was evaluated using a mouse melanoma tumor model in BALB/c mice. Tumors were established by subcutaneous inoculation of B16F10 cells, and treatment was initiated when tumors reached a measurable size. Mice were administered vehicle control, paclitaxel (PTX, 10 mg/kg), or compound 3g (20 and 50 mg/kg) via intraperitoneal injection once daily for 14 consecutive days.
(§1) All animal procedures were approved by the Animal Ethics Committee of the Naval Medical University (permit number: EC11-055). Male BALB/c mice (6–8 weeks old, average initial body weight approximately 18–20 g) were purchased from Shanghai SLAC Laboratory Animal Co., Ltd. The inhibitory effect of compound 3g was evaluated using a subcutaneous B16-F10 melanoma xenograft model. Log-phase B16F10 cells were suspended in PBS and subcutaneously injected into mice (200 μL containing 8 × 10^5 cells per mouse) to establish tumors. Mice were randomly divided into control and treatment groups (n = 8). Compound 3g and paclitaxel were dissolved in a vehicle consisting of DMSO:PEG:Tween-80:saline (v/v/v/v, 5:35:10:50) to the desired concentrations. Treatments (paclitaxel, 10 mg/kg; compound 3g, 20 and 50 mg/kg, doses calculated on a body-weight basis) and vehicle were administered once daily via intraperitoneal injection for 14 consecutive days. Body weights were monitored throughout the study to assess acute toxicity. Tumor volumes were measured using calipers and calculated with the formula: a × b^2 × 0.5, where a and b represent the larger and smaller tumor diameters, respectively. On day 14, mice were sacrificed and tumors were excised and weighed. […] Major organs (liver and kidneys) were collected, fixed in 4% paraformaldehyde, processed into paraffin sections, stained with hematoxylin and eosin (H&E), and examined microscopically.
Murine melanoma B16-F10 xenograft tumors were established in mice, which were then administered vehicle, PTX (10 mg/kg per day), compound 3g (20 mg/kg per day), and compound 3g (50 mg/kg per day) for 14 days. […]

Data set [3] can be described thus: In vivo tolerability (body weight, H&E histopathology of liver and kidney). Set-up: species or system mouse. Here is the method: as §1
Figure 8 Compound 3g inhibits melanoma tumor growth in vivo. Murine melanoma B16-F10 xenograft tumors were established in mice, which were then administered vehicle, PTX (10 mg/kg per day), compound 3g (20 mg/kg per day), and compound 3g (50 mg/kg per day) for 14 days. The mice were sacrificed, and the tumors were weighed. (A) Images of tumors from mice at 14 days after initiation of treatment. (B) Body weight changes in mice during treatment. (C) Weight of the excised tumors of each group. * p < 0.05, and *** p < 0.001 vs. control group. (D) Tumor volume changes in mice during treatment. […]

Where [4] appears, read: 20 and 50 mg/kg i.p. daily, 14 days.

Values joined by “and” are separate entries in the source; they are usually repeats but may differ in a detail not shown here. Equal entries are not always repeated. “Also recorded” adds a separate entry of the source.

As for `COc1cc(-n2ccc3ccc(-c4ccc(C)c(C#N)c4)cc32)cc(OC)c1OC` [3g, 2-methyl-5-(1-(3,4,5-trimethoxyphenyl)-1H-indol-6-yl)benzonitrile], the wound closure entry in the data set with MCF-7 cells is “markedly inhibited”. Moreover, the microtubule architecture entry in data set [1] is “progressive disruption”. Moreover, the “tumor growth inhibition (TGI)” value in data set [2] (20 mg/kg i.p. once daily) was 23.3% and 23.34%; in data set [2] (50 mg/kg i.p. once daily), 44.2% and 44.18%. In addition, the systemic toxicity result in data set [3] (20 mg/kg and 50 mg/kg) is recorded as “without evident systemic toxicity”. Moreover, the body weight change result in data set [3] (setting [4]) was “did not induce significant body weight loss”. Moreover, the “histopathology of liver and kidneys (H&E)” value in data set [3] (setting [4]) is “no overt toxicity; also recorded: did not reveal obvious morphological abnormalities”.

The values are drawn from article PMC12693167, “Design, Synthesis and Anticancer Activity of 6-Substituted-1-(3,4,5-trimethoxyphenyl)-1H-indole Against Tubulin Polymerisation” (Molecules, 2025).
